Results on 31 compounds are retold here after patent US20230183237A1, “COMPETITIVE AND NONCOMPETITIVE INHIBITORS OF THE MUSCARINIC ACETYLCHOLINE RECEPTOR M5” (Vanderbilt University, priority 2020, published 2023).

A value given as a limit tells only on which side of the number the result lay.

For this assay, the target named is T1, hM5 (Homo sapiens, UniProt P08912).
T1 construct: expressed in transfected cells
T1 sequence (P08912 1-532): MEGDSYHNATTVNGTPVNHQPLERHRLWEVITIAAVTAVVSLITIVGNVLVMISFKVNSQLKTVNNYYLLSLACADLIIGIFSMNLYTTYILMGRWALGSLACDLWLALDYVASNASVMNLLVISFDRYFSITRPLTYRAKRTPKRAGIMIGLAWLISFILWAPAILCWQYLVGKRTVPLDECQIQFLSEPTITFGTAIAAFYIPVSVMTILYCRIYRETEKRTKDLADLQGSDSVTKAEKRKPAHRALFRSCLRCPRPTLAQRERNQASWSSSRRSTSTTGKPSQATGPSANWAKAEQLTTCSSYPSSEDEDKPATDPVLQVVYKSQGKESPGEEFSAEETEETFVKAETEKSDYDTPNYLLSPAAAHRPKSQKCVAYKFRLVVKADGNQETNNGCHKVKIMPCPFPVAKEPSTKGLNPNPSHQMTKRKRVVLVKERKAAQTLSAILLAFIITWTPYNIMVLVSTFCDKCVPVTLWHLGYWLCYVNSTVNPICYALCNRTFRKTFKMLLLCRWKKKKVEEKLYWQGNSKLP
Put plainly: Calcium mobilization concentration-response (IC50 vs EC80 acetylcholine), CHO hM5. Format: cell-based. The settings on record: CELL LINE hM5; calcium mobilization, EC80 acetylcholine addition; read-out: IC50. In outline: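 CHO cells stably expressing hM5, dye-loaded, in HBSS/20 mM HEPES/2.5 mM probenecid, pH 7.4. Compounds were pre-incubated 140 s before an EC80 acetylcholine challenge, with calcium flux read kinetically.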
(In general: Calcium assays in cells follow changes in intracellular calcium, usually with a dye or a luminescent sensor.)
For `Cc1cc2ncnn2cc1C1CCN(S(=O)(=O)c2ccsc2)CC1` [Compound 125, 7-methyl-6-(1-(thiophen-3-ylsulfonyl)piperidin-4-yl)-[1,2,4]triazolo[1,5-a]pyridine], the IC50 (usually the concentration at which inhibition is half-maximal) was greater than 10000 nM.

Take `Cc1cc2ncnn2cc1C1CCN(S(=O)(=O)c2ccc3c(c2)CCO3)C1` (stereo not shown) [Compound 126, 6-(1-((2,3-dihydrobenzofuran-5-yl)sulfonyl)pyrrolidin-3-yl)-7-methyl-[1,2,4]triazolo[1,5-a]pyridine]: the IC50 was greater than 10000 nM. In the case of `Cc1cc2ncnn2cc1C1CCN(S(=O)(=O)c2cc3c(cc2F)OCC3)C1` (stereo not shown) [Compound 127, 6-(1-((6-fluoro-2,3-dihydrobenzofuran-5-yl)sulfonyl)pyrrolidin-3-yl)-7-methyl-[1,2,4]triazolo[1,5-a]pyridine] it was greater than 10000 nM. As to `Cc1cc2ncnn2cc1C1CCN(S(=O)(=O)c2cn(C)cn2)CC1` [Compound 128, 7-methyl-6-(1-((1-methyl-1H-imidazol-4-yl)sulfonyl)piperidin-4-yl)-[1,2,4]triazolo[1,5-a]pyridine], the IC50 amounted to 1300 nM. `Cc1nc(C(F)(F)F)c(S(=O)(=O)N2CCC(c3cn4ncnc4cc3C)CC2)s1` [Compound 129, 2-methyl-5-((4-(7-methyl-[1,2,4]triazolo[1,5-a]pyridin-6-yl)piperidin-1-yl)sulfonyl)-4-(trifluoromethyl)thiazole]: the IC50 was 3800 nM. Take `COc1ccc(S(=O)(=O)N2CCC(c3cn4ncnc4cc3C)CC2)cc1C(F)(F)F` [Compound 130, 6-(1-((4-methoxy-3-(trifluoromethyl)phenyl)sulfonyl)piperidin-4-yl)-7-methyl-[1,2,4]triazoto[1,5-a]pyridine]: the IC50 was greater than 10000 nM. In the case of `[2H]C([2H])([2H])n1ncc(S(=O)(=O)N2CCC(c3cn4ncnc4cc3C)CC2)c1C1CC1` [Compound 131, 6-(1-((5-cyclopropyl-1-(methyl-d3)-1H-pyrazol-4-yl)sulfonyl)piperidin-4-yl)-7-methyl-[1,2,4]triazolo[1,5-a]pyridine] it was 28 nM; in that of `[2H]C([2H])([2H])n1cc(S(=O)(=O)N2CCC(c3cn4ncnc4cc3C)CC2)c(C2CC2)n1` [Compound 132, 6-(1-((3-cyclopropyl-1-(methyl-d3)-1H-pyrazol-4-yl)sulfonyl)piperidin-4-yl)-7-methyl-[1,2,4]triazolo[1,5-a]pyridine], 1300 nM; in that of `CCn1ncc(S(=O)(=O)N2CCC(c3cn4ncnc4cc3C)CC2)c1C1CC1` [Compound 133, 6-(1-((5-cyclopropyl-1-ethyl-1H-pyrazol-4-yl)sulfonyl)piperidin-4-yl)-7-methyl-[1,2,4]triazolo[1,5-a]pyridine], greater than 10000 nM.

Turning to `CCn1cc(S(=O)(=O)N2CCC(c3cn4ncnc4cc3C)CC2)c(C2CC2)n1` [Compound 134, 6-(1-((3-cyclopropyl-1-ethyl-1H-pyrazol-4-yl)sulfonyl)piperidin-4-yl)-7-methyl-[1,2,4]triazolo[1,5-a]pyridine], the IC50 is greater than 10000 nM. Turning to `Cc1cc2ncnn2cc1C1CCN(S(=O)(=O)c2cnc3c(c2)C(C)CO3)CC1` (stereo not shown) [Compound 136, 3-methyl-5-((4-(7-methyl-[1,2,4]triazolo[1,5-a]pyridin-6-yl)piperidin-1-yl)sulfonyl)-2,3-dihydrofuro[2,3-b]pyridine], the half-maximal inhibitory concentration (IC50) is 235 nM. In the case of `Cc1cc2ncnn2cc1C1CCN(S(=O)(=O)c2c(C)nn(C)c2Cl)CC1` [Compound 138, 6-(1-((5-chloro-1,3-dimethyl-1H-pyrazol-4-yl)sulfonyl)piperidin-4-yl)-7-methyl-[1,2,4]triazolo[1,5-a]pyridine] it was 26 nM; in that of `O=S(=O)(c1ccc2c(c1)CCO2)N1CC=C(c2cn3ncnc3cc2Cl)CC1` [Compound 139, 7-chloro-6-(1-((2,3-dihydrobenzofuran-5-yl)sulfonyl)-1,2,3,6-tetrahydropyridin-4-yl)-[1,2,4]triazolo[1,5-a]pyridine], 149 nM; in that of `O=S(=O)(c1ccc2c(c1)CCO2)N1CC=C(c2cc3ncnn3cc2Cl)CC1` [Compound 140, 6-chloro-7-(1-((2,3-dihydrobenzofuran-5-yl)sulfonyl)-1,2,3,6-tetrahydropyridin-4-yl)-[1,2,4]triazolo[1,5-a]pyridine], greater than 10000 nM. In the case of `Cc1cc2ncnn2cc1C1CCN(S(=O)(=O)c2cnc3c(c2)CCO3)CC1` [Compound 141, 5-((4-(7-methyl-[1,2,4]triazolo[1,5-a]pyridin-6-yl)piperidin-1-yl)sulfonyl)-2,3-dihydrofuro[2,3-b]pyridine] it was 1400 nM; in that of `Cc1c(S(=O)(=O)N2CC=C(c3cc4ncnn4cc3Cl)CC2)cnn1C` [Compound 142, 6-chloro-7-(1-((1,5-dimethyl-1H-pyrazol-4-yl)sulfonyl)-1,2,3,6-tetrahydropyridin-4-yl)-[1,2,4]triazolo[1,5-a]pyridine], 253 nM.

Consider `Cc1cc2ncnn2cc1C1CCN(S(=O)(=O)c2cn(C(F)F)nc2C)CC1` [Compound 144, 6-(1-((1-(difluoromethyl)-3-methyl-1H-pyrazol-4-yl)sulfonyl)piperidin-4-yl)-7-methyl-[1,2,4]triazolo[1,5-a]pyridine], for which the IC50 came to 1200 nM. As for `Cc1cc(S(=O)(=O)N2CCC(c3cn4ncnc4cc3C)CC2)c(C)s1` [Compound 145, 6-(1-((2,5-dimethylthiophen-3-yl)sulfonyl)piperidin-4-yl)-7-methyl-[1,2,4]triazolo[1,5-a]pyridine], the IC50 is 989 nM.

For the compound `Cc1cc2ncnn2cc1C1CCN(S(=O)(=O)c2cc(C(F)(F)F)nn2C)CC1` [Compound 146, 7-methyl-6-(1-((1-methyl-3-(trifluoromethyl)-1H-pyrazol-5-yl)sulfonyl)piperidin-4-yl)-[1,2,4]triazolo[1,5-a]pyridine], the IC50 was greater than 10000 nM. In the case of `C=Cc1cc2ncnn2cc1C1=CCN(S(=O)(=O)c2cnn(C)c2C)CC1` [Compound 147, 6-(1-((1,5-dimethyl-1H-pyrazol-4-yl)sulfonyl)-1,2,3,6-tetrahydropyridin-4-yl)-7-vinyl-[1,2,4]triazolo[1,5-a]pyridine] it was 51 nM; in that of `Cc1c(S(=O)(=O)N2CC=C(c3cn4ncnc4cc3C3CC3)CC2)cnn1C` [Compound 148, 7-cyclopropyl-6-(1-((1,5-dimethyl-1H-pyrazol-4-yl)sulfonyl)-1,2,3,6-tetrahydropyridin-4-yl)-[1,2,4]triazolo[1,5-a]pyridine], 786 nM; in that of `Cc1cc2ncnn2cc1C1CCN(S(=O)(=O)c2c3ccccc3nn2C)CC1` [Compound 150, 7-methyl-6-(1-((2-methyl-2H-indazol-3-yl)sulfonyl)piperidin-4-yl)-[1,2,4]triazolo[1,5-a]pyridine], 325 nM.

Regarding `Cc1cc2ncnn2cc1C1CCN(S(=O)(=O)c2cnn(C(F)F)c2C)CC1` [Compound 151, 6-(1-((1-(difluoromethyl)-5-methyl-1H-pyrazol-4-yl)sulfonyl)piperidin-4-yl)-7-methyl-[1,2,4]triazolo[1,5-a]pyridine], the IC50 came to 62 nM. With `Cc1cc2ncnn2cc1C1CCN(S(=O)(=O)c2cccc3c2OCCO3)CC1` [Compound 152, 6-(1-((2,3-dihydrobenzo[b]dioxin-5-yl)sulfonyl)piperidin-4-yl)-7-methyl-[1,2,4]triazolo[1,5-a]pyridine], the half-inhibitory concentration (IC50) came out at 117 nM. Turning to `Cc1cc2ncnn2cc1C1CCN(S(=O)(=O)c2ccc(F)cc2)CC1` [Compound 153, 6-(1-((4-fluorophenyl)sulfonyl)piperidin-4-yl)-7-methyl-[1,2,4]triazolo[1,5-a]pyridine], the IC50 was 4100 nM. Under `Cc1cc2ncnn2cc1C1CCN(S(=O)(=O)c2c[nH]cn2)CC1` [Compound 155, 6-(1-((1H-imidazol-4-yl)sulfonyl)piperidin-4-yl)-7-methyl-[1,2,4]triazolo[1,5-a]pyridine] stands greater than 10000 nM; under `Cc1cc2ncnn2cc1C1CCN(S(=O)(=O)c2cnn(C)c2C(F)F)CC1` [Compound 156, 6-(1-((5-(difluoromethyl)-1-methyl-1H-pyrazol-4-yl)sulfonyl)piperidin-4-yl)-7-methyl-[1,2,4]triazolo[1,5-a]pyridine], 9.1 nM. In the case of `Cc1cc2ncnn2cc1C1CCN(S(=O)(=O)c2c(C)n[nH]c2C)CC1` [Compound 157, 6-(1-((3,5-dimethyl-1H-pyrazol-4-yl)sulfonyl)piperidin-4-yl)-7-methyl-[1,2,4]triazolo[1,5-a]pyridine] it was 2900 nM; in that of `Cc1c(S(=O)(=O)N2CCC(c3cn4ncnc4cc3F)CC2)cnn1C` [Compound 161, 6-(1-((1,5-dimethyl-1H-pyrazol-4-yl)sulfonyl)piperidin-4-yl)-7-fluoro-[1,2,4]triazolo[1,5-a]pyridine], 125 nM; in that of `Cc1cc2ncnn2cc1C1CCN(S(=O)(=O)c2cnn(C)c2C(F)(F)F)CC1` [Compound 162, 7-methyl-6-(1-((1-methyl-5-(trifluoromethyl)-1H-pyrazol-4-yl)sulfonyl)piperidin-4-yl)-[1,2,4]triazolo[1,5-a]pyridine], 96 nM.

For `Cc1cc2ncnn2nc1C1CCN(S(=O)(=O)c2ccc3c(c2)CCO3)CC1` [Compound 164, 6-(1-((2,3-dihydrobenzofuran-5-yl)sulfonyl)piperidin-4-yl)-7-methyl-[1,2,4]triazolo[1,5-b]pyridazine], the IC50 came to 5900 nM.
